What was measured:
[1] = target: T1, Adrenergic receptor alpha-1 (Rattus norvegicus, UniProt P15823+P23944+P43140); assay: Displacement of [3H]prazosin from alpha1 adrenergic receptor in Wistar rat cerebral cortex membrane; assay type: tissue-based
T1 sequence (P15823 whole entry): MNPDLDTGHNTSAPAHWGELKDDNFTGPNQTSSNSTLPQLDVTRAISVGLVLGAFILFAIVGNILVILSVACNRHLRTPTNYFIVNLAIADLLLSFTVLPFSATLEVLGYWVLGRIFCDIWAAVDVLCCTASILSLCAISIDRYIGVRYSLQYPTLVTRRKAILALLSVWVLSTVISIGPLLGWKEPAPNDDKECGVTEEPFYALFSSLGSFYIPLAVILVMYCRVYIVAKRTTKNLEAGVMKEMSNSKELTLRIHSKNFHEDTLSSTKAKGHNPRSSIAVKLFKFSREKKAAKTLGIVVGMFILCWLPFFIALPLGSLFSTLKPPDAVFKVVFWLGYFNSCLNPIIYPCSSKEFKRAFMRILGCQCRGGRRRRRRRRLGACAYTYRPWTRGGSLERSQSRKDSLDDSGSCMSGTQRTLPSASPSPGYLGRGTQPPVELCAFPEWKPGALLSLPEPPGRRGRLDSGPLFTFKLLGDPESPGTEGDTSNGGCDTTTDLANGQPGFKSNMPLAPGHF
T1 sequence (P23944 whole entry): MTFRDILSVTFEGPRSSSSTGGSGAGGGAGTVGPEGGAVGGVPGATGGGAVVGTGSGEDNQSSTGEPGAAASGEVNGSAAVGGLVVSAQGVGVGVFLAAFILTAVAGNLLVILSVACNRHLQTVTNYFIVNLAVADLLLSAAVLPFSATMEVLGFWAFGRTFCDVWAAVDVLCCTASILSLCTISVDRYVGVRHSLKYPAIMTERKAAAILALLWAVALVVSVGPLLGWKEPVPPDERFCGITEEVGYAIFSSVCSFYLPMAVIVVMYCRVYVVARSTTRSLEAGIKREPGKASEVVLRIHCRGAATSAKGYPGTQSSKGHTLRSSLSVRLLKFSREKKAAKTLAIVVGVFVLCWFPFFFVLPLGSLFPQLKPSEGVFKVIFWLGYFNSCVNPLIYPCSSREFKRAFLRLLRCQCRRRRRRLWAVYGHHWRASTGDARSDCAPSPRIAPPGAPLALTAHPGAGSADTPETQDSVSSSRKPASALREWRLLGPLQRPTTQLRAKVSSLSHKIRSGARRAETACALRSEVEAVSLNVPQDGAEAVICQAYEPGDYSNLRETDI
T1 sequence (P43140 whole entry): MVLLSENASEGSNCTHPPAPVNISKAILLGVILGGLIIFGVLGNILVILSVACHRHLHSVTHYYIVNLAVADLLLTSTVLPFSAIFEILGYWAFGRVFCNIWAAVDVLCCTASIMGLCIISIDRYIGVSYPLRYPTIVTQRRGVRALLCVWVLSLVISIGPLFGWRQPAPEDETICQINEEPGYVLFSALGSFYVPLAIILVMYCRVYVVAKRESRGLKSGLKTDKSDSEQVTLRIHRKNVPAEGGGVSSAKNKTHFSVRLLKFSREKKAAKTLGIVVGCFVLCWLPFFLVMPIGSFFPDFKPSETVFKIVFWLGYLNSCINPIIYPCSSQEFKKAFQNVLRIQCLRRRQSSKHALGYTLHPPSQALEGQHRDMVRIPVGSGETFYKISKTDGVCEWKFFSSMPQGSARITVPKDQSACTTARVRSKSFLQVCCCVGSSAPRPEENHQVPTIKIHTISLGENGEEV

[2] = target: Voltage-gated L-type calcium channel (Rattus norvegicus, UniProt P22002+Q02485+P27732); assay: Displacement of [3H]diltiazem from benzothiazepine binding site of L-type calcium channel in Wistar rat cerebral cortex membrane
Aorta [3] = assay: Vasorelaxant activity against KCl-induced contraction in Wistar rat thoracic aorta in presence of calcium; assay type: functional, tissue-based
Aorta [4] = assay: Vasorelaxant activity against noradrenaline-induced contraction in Wistar rat thoracic aorta in presence of calcium; assay type: functional, tissue-based
Aorta [5] = assay: Vasorelaxant activity against KCl-induced contraction in Wistar rat thoracic aorta at 100 uM in presence of calcium; assay type: functional; set-up: scale not given: the % may be the effect or the level left

pKi [1] | pKi [2] | IC50 (Aorta [3]) [µM] | IC50 (Aorta [4]) [µM] | Compound | Activity ([2]; rat) [%] | Activity (Aorta [5]) [%]
5.07 | 4.51 | – | – | CCN1CCc2cc(OC)c(OC)cc2C1Cc1ccc(O)cc1 (racemic) | – | –
5.73 | 5.82 | 11.5 | 4.27 | COc1ccc(CC2c3cc(OCc4ccccc4)c(OC)cc3CCN2C)cc1 (racemic) | – | –
5.29 | 4.9 | 72.4 | 25.1 | COc1ccc(CC2c3cc(O)c(OC)cc3CCN2C)cc1 (racemic) | – | –
5.14 | 5.02 | 115 | 209 | COc1cc2c(cc1OC)C(Cc1ccc(O)cc1)N(C)CC2 (racemic) | – | –
5.49 | 5.6 | 7.59 | 13.2 | COc1cc2c(cc1OCc1ccccc1)C(Cc1ccc(O)cc1)NCC2 (racemic) | – | –
5.05 | 5.75 | – | – | CCCN1CCc2cc(OC)c(OCc3ccccc3)cc2C1Cc1ccc(OCc2ccccc2)cc1 (racemic) | – | –
5.29 | 4.86 | – | – | CCN1CCc2cc(OC)c(O)cc2C1Cc1ccc(O)cc1 (racemic) | – | –
5.34 | – | – | – | COc1ccc(CC2NCCc3cc(OC)c(OCc4ccccc4)cc32)cc1 (racemic) | – | –
5.63 | 4.64 | 67.6 | 24.5 | COc1cc2c(cc1O)C(Cc1ccc(O)cc1)N(C)CC2 (racemic) [METHYL COCLAURINE] | – | –
5.49 | 5.7 | 5.75 | 8.71 | COc1cc2c(cc1OCc1ccccc1)C(Cc1ccc(O)cc1)N(C)CC2 (racemic) | – | –
5.69 | 5.57 | 13.8 | 16.2 | COc1cc2c(cc1O)C(Cc1ccc(OCc3ccccc3)cc1)NCC2 (racemic) | – | –
5.12 | 5.74 | – | – | COc1cc2c(cc1OCc1ccccc1)C(Cc1ccc(OCc3ccccc3)cc1)N(C)CC2 (racemic) | – | –
5.1 | 5.38 | 14.8 | 66.1 | COc1ccc(CC2c3cc(OC)c(OC)cc3CCN2C)cc1 (racemic) | – | –
5.02 | 4.61 | – | – | COc1cc2c(cc1OCc1ccccc1)C(Cc1ccc(OCc3ccccc3)cc1)NCC2 (racemic) | – | –
5.23 | – | – | – | COc1cc2c(cc1OC)C(Cc1ccc(O)cc1)NCC2 (racemic) | – | –
4.92 | 4.49 | – | – | COc1ccc(CC2NCCc3cc(OC)c(O)cc32)cc1 (racemic) | – | –

Compound | pKi [1] | pKi [2] | IC50 (Aorta [3]) [µM] | IC50 (Aorta [4]) [µM] | Activity ([2]; rat) [%] | Activity (Aorta [5]) [%]
COc1ccc2cc1Oc1ccc(cc1)C[C@H]1c3cc(c(OC)cc3CCN1C)Oc1c(OC)c(OC)cc3c1[C@H](C2)N(C)CC3 [FANCHININ] | 6.16 | 6.13 | 13.5 | 29.5 | – | –
COc1cc2c(cc1O)C(Cc1ccc(O)cc1)NCC2 (racemic) [COCLAURINE] | 5.97 | – | – | 17.4 | 30 | 17.2

Source: ChEMBL document CHEMBL1146551, “Simplified tetrandrine congeners as possible antihypertensive agents with a dual mechanism of action” (J Nat Prod, 2003)
